The values below come from patent US6579873B2, “3 (5)-heteroaryl substituted pyrazoles as p38 kinase inhibitors” (Pharmacia Corporation, priority 1997, dated 2003).

Data set [1] deals with T1, human p38 kinase alpha (Homo sapiens, UniProt Q16539).
T1 construct: The coding region of the human p38a cDNA was obtained by PCR-amplification from RNA; made in house; host or cells: E. coli DH10B
The data set can be described thus: p38 kinase in vitro assay, EGFRP phosphorylation (33P-ATP). To be noted: p38α in vitro results based on EGFRP assay procedure, read-out: p38α^2. The data set is classed as biochemical. The protocol: A second assay format was also employed that is based on p38 kinase alpha induced phosphorylation of EGFRP (epidermal growth factor receptor peptide, a 21 mer) in the presence of ^33P-ATP. Compounds were tested in 10 fold serial dilutions over the range of 100 μM to 0.001 μM in 1% DMSO. Each concentration of inhibitor was tested in triplicate. Compounds were evaluated in 50 μl reaction volumes in the presence of 25 mM Hepes pH 7.5, 10 mM magnesium acetate, 4% glycerol, 0.4% bovine serum albumin, 0.4 mM DTT, 50 μM unlabeled ATP, 25 μg EGFRP (200 μM), and 0.05 uCi gamma ^33P-ATP. Reactions were initiated by addition of 0.09 μg of activated, purified human GST-p38 kinase alpha. Activation was carried out using GST-MKK6 (5:1,p38:MKK6) for one hour at 30° C. in the presence of 50 μM ATP. Following incubation for 60 minutes at room temperature, the reaction was stopped by addition of 150 μl of AG 1×8 resin in 900 mM sodium formate buffer, pH 3.0 (1 volume resin to 2 volumes buffer). The mixture was mixed three times with pipetting and the resin was allowed to settle. A total of 50 μl of clarified solution head volume was transferred from the reaction wells to Microlite-2 plates. 150 μl of Microscint 40 was then added to each well of the Microlite plate, and the plate was sealed, mixed, and counted.

Data set [2] has as its system TNF production by U937 cells. The data set can be described thus: LPS stimulation of TNF production by U937 cells. To be noted: Homo sapiens, U-937, LPS-stimulated TNF-α release, differentiated U937 cells, 4 hour incubation. The data set is classed as cell-based. Here is the method:
U937 cells (ATCC) were propagated in RPMI 1640 containing 10% Fetal bovine serum, 100 IU/ml penicillin, 100 μg/ml streptomycin, and 2 mM glutamine (Gibco). Fifty million cells in 100 ml media were induced to terminal monocytic differentiation by 24 hour incubation with 20 ng/ml phorbol 12-myristate 13-acetate (Sigma). The cells were washed by centrifugation (200×g for 5 min) and resuspended in 100 ml fresh medium. After 24-48 hours, the cells were harvested, centrifuged, and resuspended in culture medium at 2 million cells/ml.
U937 cells (0.1 ml, 2 million/ml) were incubated with 0.1 ml compound (0.004-50 μM, final concentration) for 1 hour in 96 well microtiter plates. Compounds were prepared as 10 mM stock solutions in DMSO and diluted in culture medium to yield a final DMSO concentration of 0.1% in the cell assay. LPS (E. coli, 100 ng/ml final concentration) was then added at a volume of 0.02 ml. After 4 hour incubation at 37° C., the amount of TNF-α released in the culture medium was quantitated by ELISA. Inhibitory potency is expressed as IC50 (μM).

Data set [3] has as its target T1, human p38 kinase alpha. The data set can be described thus: p38 kinase in vitro assay, PHAS-I phosphorylation (32P-ATP). The class given is biochemical. To be noted: p38α in vitro results based on PHAS-I assay procedure, read-out: P38α^1. The protocol:
The ability of compounds to inhibit human p38 kinase alpha was evaluated using two in vitro assay methods. In the first method, activated human p38 kinase alpha phosphorylates a biotinylated substrate, PHAS-I (phosphorylated heat and acid stable protein-insulin inducible), in the presence of gamma ^32P-ATP (^32P-ATP). PHAS-I was biotinylated prior to the assay and provides a means of capturing the substrate which is phosphorylated during the assay. p38 Kinase was activated by MKK6. Compounds were tested in 10 fold serial dilutions over the range of 100 μM to 0.001 μM using 1% DMSO. Each concentration of inhibitor was tested in triplicate.
All reactions were carried out in 96 well polypropylene plates. Each reaction well contained 25 mM HEPES pH 7.5, 10 mM magnesium acetate and 50 μM unlabeled ATP. Activation of p38 was required to achieve sufficient signal in the assay. Biotinylated PHAS-I was used at 1-2 μg per 50 μl reaction volume, with a final concentration of 1.5 μM. Activated human p38 kinase alpha was used at 1 μg per 50 μl reaction volume representing a final concentration of 0.3 μM. Gamma ^32P-ATP was used to follow the phosphorylation of PHAS-I. ^32P-ATP has a specific activity of 3000 Ci/mmol and was used at 1.2 μCi per 50 μl reaction volume. The reaction Proceeded either for one hour or overnight at 30° C.
Following incubation, 20 μl of reaction mixture was transferred to a high capacity streptavidin coated filter plate (SAM-streptavidin-matrix, Promega) prewetted with phosphate buffered saline. The transferred reaction mix was allowed to contact the streptavidin membrane of the Promega plate for 1-2 minutes. Following capture of biotinylated PHAS-I with ^32P incorporated, each well was washed to remove unincorporated ^32P-ATP three times with 2M NaCl, three washes of 2M NaCl with 1% phosphoric, three washes of distilled water and finally a single wash of 95% ethanol. Filter plates were air dried and 20 μl of scintillant was added. The plates were sealed and counted.

The next data set concerns serum TNF. Briefly: Mouse model of LPS-induced TNF alpha production. The class given is in vivo, BALB/c female mice. As to conditions: percent inhibition of serum TNF, oral gavage 6 hours prior to LPS injection, mice. The protocol: TNF alpha was induced in 10-12 week old BALB/c female mice by tail vein injection with 100 ng lipopolysaccharide (from S. Typhosa) in 0.2 ml saline. One hour later mice were bled from the retroorbital sinus and TNF concentrations in serum from clotted blood were quantified by ELISA. Typically, peak levels of serum TNF ranged from 2-6 ng/ml one hour after LPS injection.
The compounds tested were administered to fasted mice by oral gavage as a suspension in 0.2 ml of 0.5% methylcellulose and 0.025% Tween 20 in water at 1 hour or 6 hours prior to LPS injection. The 1 hour protocol allowed evaluation of compound potency at Cmax plasma levels whereas the 6 hour protocol allowed estimation of compound duration of action. Efficacy was determined at each time point as percent inhibition of serum TNF levels relative to LPS injected mice that received vehicle only.

T1 sequence (Q16539 whole entry): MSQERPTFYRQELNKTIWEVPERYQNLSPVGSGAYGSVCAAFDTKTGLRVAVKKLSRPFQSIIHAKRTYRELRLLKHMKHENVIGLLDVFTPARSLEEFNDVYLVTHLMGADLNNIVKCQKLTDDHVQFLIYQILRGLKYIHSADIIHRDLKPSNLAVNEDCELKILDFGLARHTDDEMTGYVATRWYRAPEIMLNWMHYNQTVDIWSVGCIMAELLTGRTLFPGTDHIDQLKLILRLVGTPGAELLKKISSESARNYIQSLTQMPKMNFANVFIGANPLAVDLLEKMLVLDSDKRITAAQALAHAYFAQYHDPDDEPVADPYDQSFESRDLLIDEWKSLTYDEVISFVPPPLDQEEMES

Take `CS(=O)(=O)Nc1n[nH]c(-c2ccncc2)c1-c1ccc(F)cc1` [Example 3, N-[4 (4-fluorophenyl)-5-(4-pyridinyl)-1H-pyrazol-3-yl]methanesulfonamide]: the melting point (commonly the temperature, or range, at which the solid turns liquid) was in the range of 168 to 170 °C. Also, on human p38 kinase alpha [1], the IC50 was determined as 2.55 µM. Further, the IC50 in data set [2] is more than 10 µM.
`Nc1n[nH]c(-c2ccncc2)c1-c1ccc(F)cc1` [Example 2, 4-(4-fluorophenyl)-5-(4-pyridinyl)-1H-pyrazol-3-amine] yielded a melting point of 178 to 180 °C. The IC50 at human p38 kinase alpha [1] turned out to be 6.21 µM. Further, in data set [2], the IC50 amounted to 10.6 µM.
Regarding `Cn1cc(-c2ccc(F)cc2)c(-c2ccncc2)n1` [Example 10, 4-[4-(4-fluorophenyl)-1-methyl-1H-pyrazol-3-yl]pyridine], the IC50 at human p38 kinase alpha [3] is 7230 nM; on human p38 kinase alpha [1], 0.4 µM; in data set [2] it was 1.6 µM. The “mLPS (6 h @ (30 mpk))” value in the data set with serum TNF amounted to 76%.
As to `Clc1ccc(-c2c[nH]nc2-c2ccncc2)cc1` [Example 15, 4-[4-(4-chlorcophenyl)-1H-pyrazol-3-yl]pyridine], the IC50 on human p38 kinase alpha [3] was determined as 5900 nM; at human p38 kinase alpha [1] it was 0.75 µM. Further, the “mLPS (6 h @ (30 mpk))” value in the data set on serum TNF is reported as 32%.
Take “4-(4-fluorophenyl)-N,N-dimethyl-3-(4-pyridinyl)-1H-pyrazole-1-ethanamine and 4-(4fluorophenyl)-N,N-dimethyl-5-(4-pyridinyl)-1H-pyrazole-1-ethanamine [Example 12]”: the IC50 on human p38 kinase alpha [3] amounted to 941 nM.
The compound `Cn1nc(-c2ccncc2)c(-c2ccc(Cl)cc2)c1N` [Example 7, 4-(4-chlorophenyl)-1-methyl-3-(4-pyridinyl)-1H-pyrazol-5-amine] gave a melting point of 257 to 258 °C. Also, the IC50 at human p38 kinase alpha [1] was determined as 5.48 µM. Besides, in data set [2], the IC50 was not below 10 µM.
As to `Cc1n[nH]c(-c2ccncc2)c1-c1ccccc1` [Example 1, 4-(3-methyl-4-phenyl-1H-pyrazol-5-yl)pyridine], the melting point lay in the range of 164 to 165 °C. Besides, the IC50 at human p38 kinase alpha [3] is 30000 nM. The IC50 at human p38 kinase alpha [1] came out at 13.3 µM. For the same compound, in data set [2], the IC50 is not below 10 µM.
As to “4-[2-[4-(4-fluorophenyl)-3-(4-pyridinyl)-1H-pyrazol-1-yl]ethyl]morpholine and 4-[2-[4-(4-fluorophenyl)-5-(4-pyridinyl)-1H-pyrazol-1-yl]ethyl]morpholine [Example 13]”, the IC50 on human p38 kinase alpha [3] is 860 nM.
On to `NC(=O)Nc1n[nH]c(-c2ccncc2)c1-c1ccc(F)cc1` [Example 5, [4-(4-fluorophenyl)-5-(4-pyridinyl)-1H-pyrazol-3-yl]urea], for which the IC50 came out at 1980 nM on human p38 kinase alpha [3] and 5.53 µM in data set [2].
Consider “4-(4-fluorophenyl)-3-(4-pyridinyl)-1H-pyrazole-1-ethanol and 4-(4-fluorophenyl)-5-(4-pyridinyl)-1H-pyrazole-1-ethanol [Example 11]”, for which, on human p38 kinase alpha [3], the IC50 came out at 695 nM.
As for `CNC(=O)Nc1n[nH]c(-c2ccncc2)c1-c1ccc(F)cc1` [Example 8, N-[4-(4-fluorophenyl)-5-(4-pyridinyl)-1H-pyrazol-3-yl]-N′-methylurea], the melting point fell in the range of 212 to 213 °C. In data set [2], this compound yielded an IC50 not below 10 µM.
Compound `CNS(=O)(=O)Nc1n[nH]c(-c2ccncc2)c1-c1ccc(F)cc1` [Example 4, N-[4-(4-fluorophenyl)-5-(4-pyridinyl)-1H-pyrazol-3-yl]-N′-methylsulfamide] returned a melting point of 194 to 195 °C. Also, the IC50 at human p38 kinase alpha [1] was 0.23 µM. Moreover, the IC50 in data set [2] amounted to 4.7 µM. In the data set on serum TNF, the “mLPS (6 h @ (30 mpk))” value was 54%.
On to `Fc1ccc(-c2cn[nH]c2-c2ccncc2)cc1` [Example 9, 4-[4-(4-fluorophenyl)-1H-pyrazol-3-yl]pyridine], for which the IC50 on human p38 kinase alpha [3] turned out to be 2440 nM; at human p38 kinase alpha [1] it was 3.46 µM; in data set [2], 0.647 µM. In addition, the “mLPS (6 h @ (30 mpk))” value with serum TNF was 42%.
